Source: PubChem BioAssay (NCI)
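How tested: cells in 96-well plates exposed to compound for 48 hours at five concentrations. Abbreviation: GI50, concentration required for 50% inhibition of growth. TGI: total growth inhibition.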

Tests used:
Test in all cases: NCI-60 cell line screen, 48 h
[1] = tested on: LOX IMVI melanoma
[2] = tested on: COLO 205 colon
[3] = tested on: NCI/ADR-RES ovarian
[4] = tested on: OVCAR-8 ovarian
[5] = tested on: RXF 393 renal
[6] = tested on: K-562 leukemia
[7] = tested on: NCI-H226 lung
[8] = tested on: SK-MEL-2 melanoma
[9] = tested on: HT29 colon
[10] = tested on: SNB-75 CNS
[11] = tested on: 786-0 renal
[12] = tested on: MDA-MB-231 breast
[13] = tested on: KM12 colon
[14] = tested on: OVCAR-5 ovarian
[15] = tested on: CCRF-CEM leukemia
[16] = tested on: BT-549 breast
[17] = tested on: SF-295 CNS
[18] = tested on: HS 578T breast
[19] = tested on: UO-31 renal
[20] = tested on: A549 NSCLC
[21] = tested on: ACHN renal
[22] = tested on: M14 melanoma
[23] = tested on: PC-3 prostate
[24] = tested on: UACC-62 melanoma
[25] = tested on: TK-10 renal
[26] = tested on: MALME-3M melanoma
[27] = tested on: HCT-15 colon
[28] = tested on: MOLT-4 leukemia
[29] = tested on: EKVX NSCLC
[30] = tested on: IGROV1 ovarian
[31] = tested on: SW-620 colon
[32] = tested on: SK-MEL-28 melanoma
[33] = tested on: SF-268 CNS
[34] = tested on: NCI-H23 lung
[35] = tested on: HCT-116 colon
[36] = tested on: MDA-MB-435
[37] = tested on: DU-145 prostate
[38] = tested on: UACC-257 melanoma
[39] = tested on: CAKI-1 renal
[40] = tested on: NCI-H460 lung
[41] = tested on: HOP-62 NSCLC
[42] = tested on: SK-OV-3 ovarian
[43] = tested on: NCI-H522 lung
[44] = tested on: OVCAR-4 ovarian
[45] = tested on: HOP-92 NSCLC
[46] = tested on: SR leukemia
[47] = tested on: HL-60(TB) leukemia
[48] = tested on: HCC-2998 colon
[49] = tested on: SK-MEL-5 melanoma
[50] = tested on: RPMI-8226 leukemia
[51] = tested on: T-47D breast
[52] = tested on: U251 CNS
[53] = tested on: SF-539 CNS
[54] = tested on: A498 renal
[55] = tested on: SN12C renal
[56] = tested on: MCF7 breast
[57] = tested on: OVCAR-3 ovarian
[58] = tested on: SNB-19 CNS

Compound: N/C(=N\c1nc2ccccc2s1)NC(=O)Nc1ccccc1Cl
- GI50 [1]: 0.144 µM
- TGI [1]: 5.92 µM
- GI50 [2]: 0.151 µM
- TGI [2]: 2.13 µM
- GI50 [3]: 0.0643 µM
- TGI [3]: 8.83 µM
- GI50 [4]: 0.179 µM
- TGI [4]: 25.1 µM
- GI50 [5]: 0.0983 µM
- TGI [5]: 1.56 µM
- GI50 [6]: 0.0366 µM
- TGI [6]: > 43.5 µM
- GI50 [7]: 0.429 µM
- TGI [7]: 19.2 µM
- GI50 [8]: 3.24 µM
- TGI [8]: > 61.3 µM
- GI50 [9]: 0.105 µM
- TGI [9]: 6.31 µM
- GI50 [10]: 0.0336 µM
- TGI [10]: 0.214 µM
- GI50 [11]: 0.184 µM
- TGI [11]: 10.4 µM
- GI50 [12]: 0.431 µM
- TGI [12]: 8.21 µM
- GI50 [13]: 0.127 µM
- TGI [13]: 12 µM
- GI50 [14]: 0.379 µM
- TGI [14]: 26.8 µM
- GI50 [15]: 0.11 µM
- TGI [15]: > 42.8 µM
- GI50 [16]: 0.421 µM
- TGI [16]: 4.86 µM
- GI50 [17]: 0.106 µM
- TGI [17]: 1.74 µM
- GI50 [18]: 0.113 µM
- TGI [18]: 10.7 µM
- GI50 [19]: 0.197 µM
- TGI [19]: 21.2 µM
- GI50 [20]: 0.19 µM
- TGI [20]: 18.1 µM
- GI50 [21]: 0.227 µM
- TGI [21]: 7.17 µM
- GI50 [22]: 0.0509 µM
- TGI [22]: 2.14 µM
- GI50 [23]: 0.13 µM
- TGI [23]: > 71.9 µM
- GI50 [24]: 0.125 µM
- TGI [24]: > 78.9 µM
- GI50 [25]: 4.11 µM
- TGI [25]: 18.7 µM
- GI50 [26]: 0.667 µM
- TGI [26]: 13.2 µM
- GI50 [27]: 0.0643 µM
- TGI [27]: 18.9 µM
- GI50 [28]: 0.167 µM
- TGI [28]: > 56.6 µM
- GI50 [29]: 0.427 µM
- TGI [29]: > 100 µM
- GI50 [30]: 0.134 µM
- TGI [30]: 21.6 µM
- GI50 [31]: 0.0883 µM
- TGI [31]: > 52.3 µM
- GI50 [32]: 3.59 µM
- TGI [32]: > 100 µM
- GI50 [33]: 0.832 µM
- TGI [33]: > 44.2 µM
- GI50 [34]: 0.305 µM
- TGI [34]: 18.2 µM
- GI50 [35]: 0.0852 µM
- TGI [35]: 3.5 µM
- GI50 [36]: 0.0269 µM
- TGI [36]: 0.0868 µM
- GI50 [37]: 0.259 µM
- TGI [37]: 9.28 µM
- GI50 [38]: 18.6 µM
- TGI [38]: > 100 µM
- GI50 [39]: 0.0624 µM
- TGI [39]: 15.5 µM
- GI50 [40]: 0.149 µM
- TGI [40]: 10.4 µM
- GI50 [41]: 0.19 µM
- TGI [41]: 26.7 µM
- GI50 [42]: 0.643 µM
- TGI [42]: 25.3 µM
- GI50 [43]: 0.0439 µM
- TGI [43]: 11.9 µM
- GI50 [44]: 2.71 µM
- TGI [44]: 8.53 µM
- GI50 [45]: 0.356 µM
- TGI [45]: 56.4 µM
- GI50 [46]: 0.0411 µM
- TGI [46]: > 32.7 µM
- GI50 [47]: 0.082 µM
- TGI [47]: 0.688 µM
- GI50 [48]: 0.348 µM
- TGI [48]: 10.9 µM
- GI50 [49]: 0.318 µM
- TGI [49]: 13.5 µM
- GI50 [50]: 0.144 µM
- TGI [50]: 9.28 µM
- GI50 [51]: 0.557 µM
- TGI [51]: > 100 µM
- GI50 [52]: 0.122 µM
- TGI [52]: 5.57 µM
- GI50 [53]: 0.0853 µM
- TGI [53]: 0.834 µM
- GI50 [54]: 0.0818 µM
- TGI [54]: 0.579 µM
- GI50 [55]: 0.916 µM
- TGI [55]: > 50.1 µM
- GI50 [56]: 0.112 µM
- TGI [56]: > 100 µM
- GI50 [57]: 0.0857 µM
- TGI [57]: 0.594 µM
- GI50 [58]: 0.201 µM
- TGI [58]: > 69.5 µM

Compound: CN(C)c1ccc2cc(-c3cc4c(oc3=O)-c3ccccc3OC4O)c(=O)oc2c1 (configuration not stated)
- GI50 [1]: 3.52 µM
- TGI [1]: 7.3 µM
- GI50 [2]: 3.89 µM
- TGI [2]: 8.19 µM
- GI50 [3]: 3.6 µM
- TGI [3]: 17.1 µM
- GI50 [4]: 3.2 µM
- TGI [4]: 15.7 µM
- GI50 [5]: 2.69 µM
- TGI [5]: 6.53 µM
- GI50 [6]: 5.2 µM
- TGI [6]: > 25 µM
- GI50 [7]: 3.28 µM
- TGI [7]: 7.08 µM
- GI50 [8]: 3.03 µM
- TGI [8]: 7.53 µM
- GI50 [9]: 5.73 µM
- TGI [9]: 21.8 µM
- GI50 [10]: 5.96 µM
- TGI [10]: 24 µM
- GI50 [11]: 8.33 µM
- TGI [11]: > 25 µM
- GI50 [12]: 4.9 µM
- TGI [12]: 11.5 µM
- GI50 [13]: 6.05 µM
- TGI [13]: 16.2 µM
- GI50 [14]: 5.35 µM
- TGI [14]: 12.8 µM
- GI50 [15]: 2.54 µM
- TGI [15]: 7.95 µM
- GI50 [16]: 2.11 µM
- TGI [16]: 6.72 µM
- GI50 [17]: 3.59 µM
- TGI [17]: 10.3 µM
- GI50 [18]: 7.14 µM
- TGI [18]: 19.6 µM
- GI50 [19]: 5.09 µM
- TGI [19]: 12.7 µM
- GI50 [20]: 3.22 µM
- TGI [20]: 7.15 µM
- GI50 [21]: 4.29 µM
- TGI [21]: 12.5 µM
- GI50 [22]: 4.73 µM
- TGI [22]: 9.31 µM
- GI50 [23]: 3.85 µM
- TGI [23]: 15.1 µM
- GI50 [24]: 4.08 µM
- TGI [24]: 8.53 µM
- GI50 [25]: 6.63 µM
- TGI [25]: 19.8 µM
- GI50 [26]: 5.98 µM
- TGI [26]: 14.6 µM
- GI50 [27]: 3.81 µM
- TGI [27]: 8.9 µM
- GI50 [28]: 0.919 µM
- TGI [28]: 5.51 µM
- GI50 [29]: 2.18 µM
- TGI [29]: > 25 µM
- GI50 [30]: 5.07 µM
- TGI [30]: 12 µM
- GI50 [31]: 15.6 µM
- TGI [31]: > 25 µM
- GI50 [32]: 8.24 µM
- TGI [32]: > 25 µM
- GI50 [33]: 6.26 µM
- TGI [33]: 18.7 µM
- GI50 [34]: 1.41 µM
- TGI [34]: 13.4 µM
- GI50 [35]: 1.44 µM
- TGI [35]: > 25 µM
- GI50 [36]: 3.67 µM
- TGI [36]: 15.9 µM
- GI50 [37]: 5.18 µM
- TGI [37]: 15.9 µM
- GI50 [38]: 2.79 µM
- TGI [38]: 10.6 µM
- GI50 [39]: 7.07 µM
- TGI [39]: > 25 µM
- GI50 [40]: 4.14 µM
- TGI [40]: 14.3 µM
- GI50 [41]: 3.88 µM
- TGI [41]: 11.6 µM
- GI50 [42]: 5.96 µM
- TGI [42]: 19.8 µM
- GI50 [43]: 3.6 µM
- TGI [43]: 10.2 µM
- GI50 [44]: 0.55 µM
- TGI [44]: > 25 µM
- GI50 [45]: 7.49 µM
- TGI [45]: 17.7 µM
- GI50 [46]: 3.19 µM
- TGI [46]: 9.96 µM
- GI50 [47]: 5.7 µM
- TGI [47]: > 25 µM
- GI50 [48]: 6.99 µM
- TGI [48]: 20.2 µM
- GI50 [49]: 0.752 µM
- TGI [49]: 4.67 µM
- GI50 [50]: 0.439 µM
- TGI [50]: 4.71 µM
- GI50 [51]: 1.01 µM
- TGI [51]: 8.55 µM
- GI50 [52]: 5.85 µM
- TGI [52]: 15.7 µM
- GI50 [53]: 6.83 µM
- TGI [53]: > 25 µM
- GI50 [54]: 5.67 µM
- TGI [54]: 23.5 µM
- GI50 [55]: 6.2 µM
- TGI [55]: 19.9 µM
- GI50 [56]: 3.23 µM
- TGI [56]: 11.2 µM
- GI50 [57]: 5.9 µM
- TGI [57]: > 25 µM
- GI50 [58]: 3.56 µM
- TGI [58]: 12.2 µM
